The record followed here is patent US5736548A, “6-aryl pyrazolo[3,4-D] pyrimidin-4-ones and compositions and method of use thereof” (Sanofi, priority 1997, dated 1998).

Several values for one entry are separate records, joined by “and”; a condition that tells them apart may be missing. Identical values can stand only once. Counter-ions that a name gives are not always drawn. Like-named read-outs stand apart in the source and are kept apart here.

For this experiment, the target named is cGMP-PDE V (Homo sapiens, UniProt O76074). Kind of experiment: biochemical. Also noted: species or system various animal species and man. The conditions noted are these: for inhibition at 0.1 µM / inhibition at 1 µM / inhibition at 10 µM / inhibition at 0.01 µM: read-out: Percent Inhibition cGMP-PDE V; for IC50: values separated by / and marked * are separate experimental runs. The protocol: The cGMP-PDE and other PDE isozymes were isolated from cardiovascular tissues (heart and aorta) of various animal species and man by anion-exchange and affinity chromatography as described by Silver et al., Sec. Messeng. Phos. 13:13-25, 1991; PDE activity, in the presence and absence of test compounds was determined essentially as described by Thompson et al., Adv. Cyclic Nucleotide Res. 10:69-92. To determine the potency and selectivity of compounds as PDE inhibitors, compounds are screened for their effect on cyclic nucleotide hydrolysis at 10 μM. […] The IC50 values are calculated from concentration-response curves as described by Tallarida and Murray, Manual of Pharmacologic Calculations with Computer Programs, Procedure 8, Graded Dose-response, pp. 14-19, Springer-Verlag, New York, 1981.

“1-cyclopentyl-3-ethyl-6-[2-methyl-2,3-dihydrobenzo[b]furan-5-yl]pyrazolo[3,4-d]pyrimidin-4-one [Example 39]”: the “Percent Inhibition cGMP-PDE V” value runs as follows: (0.01 μM) 24%; (0.1 μM) 65%.
The inhibition is the change of the read-out against control, counted positive when it falls. As to `CCc1nn(C2CCCC2)c2nc(-c3ccc(-n4ccnc4)cc3)[nH]c(=O)c12` [8 (b), 1-cyclopentyl-3-ethyl-6-[4-(1-imidazolyl)phenyl]pyrazole[3,4-d]pyrimidin-4-one], for the setting “0.1 μM”, the inhibition at 0.1 µM amounted to 32%. Under “1 μM”, the inhibition at 1 µM amounted to 70%.
By IC50 is commonly meant the concentration that inhibits the measured activity by half. Regarding `CCc1[nH]n(C2CCCC2)c2nc(-c3ccccc3OCCN3CCOCC3)nc(=O)c1-2` [11 (c), 1-cyclopentyl-3-ethyl-6-[2-[2-(4-morpholinyl)ethoxy]phenyl]pyrazolo[3,4-d]pyrimidin-4-one monohydrochloride], the IC50 was 2.7 µM and 4.5 µM.
`CCOC(=O)COc1ccccc1-c1nc2n(C3CCCC3)[nH]c(CC)c-2c(=O)n1` [12 (b), 1-cyclopentyl-3-ethyl-6-[2-(ethoxycarbonylmethoxy)phenyl]pyrazolo [3,4-d]pyrimidin-4-one]: the inhibition at 0.1 µM (0.1 μM) was 30%. Further, for the setting “1 μM”, the inhibition at 1 µM was 74%.
`CCCOc1ccccc1-c1nc2[nH]ncc2c(=O)[nH]1` [17 (c), 6-(2-propoxyphenyl)pyrazolo[3,4-d]pyrimidin-4-one 1/4 hydrate]: the inhibition at 0.1 µM is 14%, the inhibition at 1 µM was 19% and the inhibition at 10 µM was determined as 39%.
In the case of `CCc1[nH]n(C2CCCC2)c2nc(-c3ccc(OCCN4CCOCC4)cc3)nc(=O)c1-2` [18 (b), 1-cyclopentyl-3-ethyl-6-[4-[2-(4-morpholinyl)ethoxy]phenyl]pyrazolo[3,4-d]pyrimidin-4-one], 0.37 µM corresponded to half-maximal inhibition (IC50).
The same measure, in the same setting: the figure for `CCOC(=O)COc1cccc(-c2nc3n(C4CCCC4)[nH]c(CC)c-3c(=O)n2)c1` [20 (b), 1-cyclopentyl-3-ethyl-6-[3-(ethoxycarbonylmethoxy)phenyl]pyrazolo[3,4-d]pyrimidin-4-one] is 0.094 µM; for `CCc1nn(C2CCCC2)c2nc(-c3cccc(OCCN(C)C)c3)[nH]c(=O)c12` [23 (c)] it is 0.54 µM.
As to `CCc1[nH]n(C2CCCC2)c2nc(-c3ccccc3OCCCN3CCOCC3)nc(=O)c1-2` [26 (c), 1-cyclopentyl-3-ethyl-6-[2-[3-(4-morpholinyl)propoxy]phenyl]pyrazolo[3,4-d]pyrimidin-4-one], under “1 μM”, the inhibition at 1 µM was 28%.
As for `CCc1[nH]n(C2CCCC2)c2nc(-c3ccccc3-n3ccnc3)nc(=O)c1-2` [27 (c), 1-cyclopentyl-3-ethyl-6-[2-(1-imidazolyl)phenyl]pyrazolo[3,4-d]pyrimidin-4-one], for the setting “0.1 μM”, the inhibition at 0.1 µM worked out at 21%. Also, the inhibition at 1 µM (1 μM) was 73%.
For `CCOc1cc(Cl)ccc1-c1nc2n(C3CCCC3)[nH]c(CC)c-2c(=O)n1` [29 (b), 1-cyclopentyl-3-ethyl-6-(4-chloro-2-ethoxyphenyl)pyrazolo[3,4-d]pyrimidin-4-one], the concentration for half-maximal inhibition (IC50) was 0.0074 µM and 0.0084 µM.
For `CCc1[nH]n(C2CCCC2)c2nc(-c3ccccc3OCCOC)nc(=O)c1-2` [34 (b), 1-cyclopentyl-3-ethyl-6-[2-[2-(methoxy)ethoxy]phenyl]pyrazolo[3,4-d]pyrimidin-4-one], the inhibition at 0.01 µM (0.01 μM) stood at 28%. Moreover, the inhibition at 0.1 µM (0.1 μM) was 56%.
For `CCc1[nH]n(C2CCCC2)c2nc(-c3ccc(OC)c(OCCN4CCOCC4)c3)nc(=O)c1-2` [35 (b), 1-cyclopentyl-3-ethyl-6-[4-methoxy-3-[2-(4-morpholinyl)ethoxy]phenyl]pyrazolo[3,4-d]pyrimidin-4-one] the same measures were 13% and 58%.
As for `CCOc1cc(N(CC)CC)ccc1-c1nc2n(C3CCCC3)[nH]c(CC)c-2c(=O)n1` [37 (b), 1-cyclopentyl-3-ethyl-6-[2-ethoxy-4-(diethylamino)phenyl]pyrazolo[3,4-d]pyrimidin-4-one], the inhibition at 0.1 µM (0.1 μM) turned out to be 31%. Besides, the inhibition at 1 µM (1 μM) stood at 73%.
As for `CCc1[nH]n(C2CCCC2)c2nc(-c3cc(OCCN4CCOCC4)cc(OCCN4CCOCC4)c3)nc(=O)c1-2` [38 (b), 1-cyclopentyl-3-ethyl-6-[3,5-di[2-(4-morpholinyl)ethoxy]phenyl]pyrazolo[3,4-d]pyrimidin-4-one], the inhibition at 0.01 µM (0.01 μM) amounted to 11%. For the same compound, the inhibition at 0.1 µM (0.1 μM) stood at 63%.
`CCc1[nH]n(C2CCCC2)c2nc(-c3cccc(OCC(=O)N4CCOCC4)c3)nc(=O)c1-2` [40 (d), 1-cyclopentyl-3-ethyl-6-[3-(4-morpholinylcarbonylmethoxy)-phenyl]pyrazolo[3,4-d]pyrimidin-4-one]: the inhibition at 0.1 µM (0.1 μM) is 47%. For the setting “1 μM”, the inhibition at 1 µM was 74%.
On to `CCc1[nH]n(C2CCCC2)c2nc(-c3cccc(OCCN4CCSCC4)c3)nc(=O)c1-2` [41 (c), 1-cyclopentyl-3-ethyl-6-[3-[2-(4-thiomorpholinyl)ethoxy]phenyl]pyrazolo[3,4-d]pyrimidin-4-one], for which, under “0.1 μM”, the inhibition at 0.1 µM is 46%. Also, the inhibition at 1 µM (1 μM) was determined as 56%.
`CCc1[nH]n(C2CCCC2)c2nc(-c3cccc(OCc4ccncc4)c3)nc(=O)c1-2` [42 (c), 1-cyclopentyl-3-ethyl-6-[3-[4-pyridinylmethoxy]phenyl]pyrazolo[3,4-d]pyrimidin-4-one]: for the setting “0.01 μM”, the inhibition at 0.01 µM stood at 25%. For the same compound, the inhibition at 0.1 µM (0.1 μM) worked out at 56%.
As for `CCc1[nH]n(C2CCCC2)c2nc(-c3cccc(OC4CCCCN(C)C4)c3)nc(=O)c1-2` (stereo not shown) [43 (b), 1-cyclopentyl-3-ethyl-6-[3-(1-methyl-3-hexahydroazepinyloxy)phenyl]pyrazolo[3,4-d]pyrimidin-4-one], the inhibition at 0.1 µM (0.1 μM) came to 41%. Also, the inhibition at 1 µM (1 μM) was found to be 75%.
Compound `CCOc1cc(-n2ccnc2)ccc1-c1nc2n(C3CCCC3)[nH]c(CC)c-2c(=O)n1` [46 (c), 1-cyclopentyl-3-ethyl-6-[4-(1-imidazolyl)-2-ethoxyphenyl]pyrazolo[3,4-d]pyrimidin-4-one] had an IC50 of 0.018 µM. In addition, under “0.1 μM”, the inhibition at 0.1 µM was determined as 26%. Further, under “1 μM”, the inhibition at 1 µM was 76%. Besides, the inhibition at 10 µM (10 μM) came out at 90%.
With `CCc1[nH]n(C2CCCC2)c2nc(-c3ccccc3)nc(=O)c1-2` [Example 2, 1-cyclopentyl-3-ethyl-6-phenyl-pyrazolo[3,4-d]pyrimidin-4-one], it took 0.25 µM to reach half-maximal inhibition (IC50).
Turning to `CCc1[nH]n(C2CCCC2)c2nc(-c3ccccc3O)nc(=O)c1-2` [Example 7, 1-cyclopentyl-3-ethyl-6-(2-hydroxyphenyl)pyrazolo[3,4-d]pyrimidin-4-one], the inhibition at 1 µM (1 μM) came to 20%. In addition, the inhibition at 10 µM (10 μM) turned out to be 51%.
For `CCc1[nH]n(C2CCCC2)c2nc(-c3ccc(OCCCN(C)C)cc3)nc(=O)c1-2` [Example 10, 1-cyclopentyl-3-ethyl-6-[4-[3-(dimethylamino)propoxy]phenyl]pyrazolo[3,4-d]pyrimidin-4-one] the same measures were 15% and 85%.
Compound `CCc1nn(C2CCCC2)c2nc(-c3ccc(OCC(=O)O)cc3OC)[nH]c(=O)c12` [Example 14, 1-cyclopentyl-3-ethyl-6-[(2-methoxy-4-carboxymethoxy)phenyl]pyrazolo[3,4-d]pyrimidin-4-one] had an IC50 of 0.81 µM.
The same measure, in the same setting: the figure for `CCc1[nH]n(C2CCCC2)c2nc(-c3ccccc3C(F)(F)F)nc(=O)c1-2` [Example 15, 1-cyclopentyl-3-ethyl-6-(2-trifluoromethylphenyl)-pyrazolo[3,4-d]pyrimidin-4-one] is 0.5 µM.
Regarding `CCc1nn(C2CCCC2)c2nc(-c3ccccc3OCC(=O)O)[nH]c(=O)c12` [Example 16, 1-cyclopentyl-3-ethyl-6-[2-(carboxymethoxy)phenyl]pyrazolo[3,4-d]pyrimidin-4-one 1/2 hydrate], under “1 μM”, the inhibition at 1 µM came to 19%. Besides, the inhibition at 10 µM (10 μM) came to 68%.
With `CCc1[nH]n(C2CCCC2)c2nc(-c3ccc([N+](=O)[O-])cc3)nc(=O)c1-2` [Example 28, 1-cyclopentyl-3-ethyl-6-(4-nitrophenyl)pyrazolo [3,4-d]pyrimidin-4-one], under “1 μM”, the inhibition at 1 µM is 40%.
For `CCc1[nH]n(C2CCCC2)c2nc(-c3ccc(Cl)cc3O)nc(=O)c1-2` [Example 30, 1-cyclopentyl-3-ethyl-6-(4-chloro-2-hydroxyphenyl)pyrazolo[3,4-d]pyrimidin-4-one], the inhibition at 0.1 µM (0.1 μM) came to 9%. Moreover, for the setting “1 μM”, the inhibition at 1 µM came to 53%.
In the same order, the values of `CCc1nn(C2CCCC2)c2nc(-c3ccc(N)cc3)[nH]c(=O)c12` [Example 31, 1-cyclopentyl-3-ethyl-6-(4-aminophenyl)pyrazolo[3,4-d]pyrimidin-4-one hydrochloride 1/3 hydrate] are 31% and 61%.
In the same order, the values of `CCc1nn(C2CCCC2)c2nc(-c3ccc4c(c3)CCO4)[nH]c(=O)c12` [Example 32, 1-cyclopentyl-3-ethyl-6-(2,3-dihydrobenzo[b]furan-5-yl)pyrazolo[3,4-d]pyrimidin-4-one 1/10 hydrate] are 23% and 47%.
In the same order, the values of `CCc1[nH]n(C2CCCC2)c2nc(-c3ccc(NS(C)(=O)=O)cc3)nc(=O)c1-2` [Example 33, 1-cyclopentyl-3-ethyl-6-[4-(methylsulfonylamino)phenyl]pyrazolo[3,4-d]pyrimidin-4-one] are 21% and 56%.
